Series [1] concerns Oligodendrocyte progenitor cells (OPCs). In words: In vitro OPC differentiation assay, GPR17 expression (immunocytochemistry). The following applies: 3 μM (10× concentration, final 0.3 μM); 72 hours; fold change over vehicle.
Procedure: To assess the effects of the PDGFRα inhibitors on OPC differentiation, primary OPCs were cultured and exposed to compounds. The number of newly generated oligodendrocytes was assessed by monitoring GPR17 expression. GPR17 is preferentially expressed in actively differentiating oligodendrocytes, allowing them to be distinguished from precursors and more differentiated oligodendrocytes.
Cortices from postnatal day (P) 1-3 rats were dissected and collected into ice cold Hank's Balanced Salt Solution (HBSS). […] Briefly, the cortical cell suspension was centrifuged and washed with buffer (0.5% BSA in PBS) and labeled with Anti-A2B^5 MicroBeads (10 μL beads per 1×10^7 cells) for 15 minutes at 4° C. Following the incubation, cells were washed once with BSA buffer to remove unlabeled beads. A2B^5 positive cells were eluted on the column using the AutoMACS® (Miltenyi, as per manufacturer's protocol using “Possel-s” program). Eluted cells were further washed twice with OPC growth media. Cell counts were performed using Countess III cell counter (ThermoFisher; AMQAX2000) and cells were plated.
The plates were allowed to sit at room temperature for 15 minutes to ensure proper dispersion of cells in a well. The plates were then transferred to the incubator (37° C.; 5% CO2).
Cells were then incubated for 72 hours at 37° C., 5% CO2 before immunostaining for GPR17 marker expression.
Following 72 hours in culture, cells were fixed with 4% paraformaldehyde for 15 minutes and then washed three times in Dulbecco's phosphate buffered saline (DPBS). Prior to immunostaining, cells were treated with a blocking solution (10% normal goat serum containing 1% BSA and 0.1% Triton® X-100 in DPBS) for 15 minutes at room temperature. Primary antibody (anti-GPR17 at 1:2000; Origene TA811615) was applied to cells overnight at 4° C. in incubation solution containing 1% normal goat serum, 1% BSA, and 0.1% Triton X-100 in DPBS. […] The secondary antibody was applied in incubation solution for 2 hours at room temperature, protected from light.
The number of differentiated GPR17+ cells was normalized to the total nuclei count and percent differentiated GPR17+ cells were reported. Statistical analysis was done using one-way ANOVA with multiple comparisons and post-hoc Tukey test in GraphPad Prism (GraphPad Software).
The next series has as its target PDGFRα (Homo sapiens (Human), UniProt P16234). Nature of the series: PDGFRα kinase enzyme assay (Promega PDGFRα Kinase Enzyme System, ADP-Glo). It is filed as biochemical. The note with it: 11-point dose response, 10,000 nM to 0.169 nM; 150 uM ATP; BLQ = below limit of quantitation; read-out: IC50 Values on PDGFRα Kinase Inhibition, IC50. The method in brief: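 Purified PDGFRα protein (20 ng) reacted with test compound per the Promega kinase system protocol. ADP formed was measured by ADP-Glo luminescence against a standard curve, giving IC50.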
(In general: ADP-Glo turns the ADP formed in a reaction into a luminescent signal.)

Experimental findings from patent US20250129067A1 (Progentos Therapeutics, Inc., priority 2021, published 2025) are described below.

Some results are limits rather than exact numbers.

Sequence of PDGFRα (P16234 24-1089): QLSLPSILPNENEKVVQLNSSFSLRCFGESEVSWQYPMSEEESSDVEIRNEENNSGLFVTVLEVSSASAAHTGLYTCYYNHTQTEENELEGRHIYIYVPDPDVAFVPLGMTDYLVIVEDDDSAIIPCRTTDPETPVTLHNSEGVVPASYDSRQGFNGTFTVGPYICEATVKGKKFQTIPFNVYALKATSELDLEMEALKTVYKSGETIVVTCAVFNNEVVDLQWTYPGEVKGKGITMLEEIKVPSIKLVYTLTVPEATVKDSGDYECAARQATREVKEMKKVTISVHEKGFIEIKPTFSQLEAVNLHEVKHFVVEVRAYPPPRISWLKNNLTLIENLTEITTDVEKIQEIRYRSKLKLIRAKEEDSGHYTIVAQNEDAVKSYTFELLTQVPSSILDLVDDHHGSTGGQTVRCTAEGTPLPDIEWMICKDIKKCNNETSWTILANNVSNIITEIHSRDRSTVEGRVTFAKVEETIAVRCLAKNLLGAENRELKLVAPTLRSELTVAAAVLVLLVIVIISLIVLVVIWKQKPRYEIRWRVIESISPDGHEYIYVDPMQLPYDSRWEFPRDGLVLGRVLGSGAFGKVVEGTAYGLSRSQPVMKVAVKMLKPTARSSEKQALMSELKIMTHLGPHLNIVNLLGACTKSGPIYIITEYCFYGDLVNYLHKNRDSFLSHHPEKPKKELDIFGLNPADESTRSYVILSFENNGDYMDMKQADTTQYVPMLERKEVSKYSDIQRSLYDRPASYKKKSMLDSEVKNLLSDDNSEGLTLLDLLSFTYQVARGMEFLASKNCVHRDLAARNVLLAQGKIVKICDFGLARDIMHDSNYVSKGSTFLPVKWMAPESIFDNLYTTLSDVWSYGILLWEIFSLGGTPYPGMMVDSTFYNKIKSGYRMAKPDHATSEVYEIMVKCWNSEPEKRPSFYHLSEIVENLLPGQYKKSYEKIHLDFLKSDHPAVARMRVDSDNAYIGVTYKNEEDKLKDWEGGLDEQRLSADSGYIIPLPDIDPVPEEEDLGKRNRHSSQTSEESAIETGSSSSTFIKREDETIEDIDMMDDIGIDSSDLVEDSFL

Broadly, the IC50 is the concentration needed to halve the response being measured. For `Cn1cnc(-c2ccc3c(N4CCN(C(=O)OC(C)(C)C)CC4)cnn3c2)c1` [Compound 226, tert-butyl 4-(6-(1-methyl-1H-imidazol-4-yl)pyrazolo[1,5-a]pyridin-3-yl)piperazine-1-carboxylate], in series [1], the “GPR17 Fold Induction (Over Vehicle; 3 μM)” value (“GPR17 Fold Induction” below) is 11.69. Moreover, on PDGFRα, the IC50 stood at 1420 nM.

For `COCCn1cnc(-c2ccc3c(N4CCN(C(=O)OC(C)(C)C)CC4)cnn3c2)c1` [Compound 227, tert-butyl 4-(6-(1-(2-methoxyethyl)-1H-imidazol-4-yl)pyrazolo[1,5-a]pyridin-3-yl)piperazine-1-carboxylate], the “GPR17 Fold Induction” value in series [1] is 9.02. For the same compound, the IC50 on PDGFRα was 268 nM.

With `COCCn1cncc1-c1ccc2c(N3CCN(C(=O)OC(C)(C)C)CC3)cnn2c1` [Compound 228, tert-butyl 4-(6-(1-(2-methoxyethyl)-1H-imidazol-5-yl)pyrazolo[1,5-a]pyridin-3-yl)piperazine-1-carboxylate], the “GPR17 Fold Induction” value in series [1] was determined as 1.19. Moreover, the IC50 at PDGFRα is greater than 10000 nM.

For the compound `CC(C)(C)OC(=O)N1CCN(c2cnn3cc(-c4cn(CCO)cn4)ccc23)CC1` [Compound 229, tert-butyl 4-(6-(1-(2-hydroxyethyl)-1H-imidazol-4-yl)pyrazolo[1,5-a]pyridin-3-yl)piperazine-1-carboxylate], the “GPR17 Fold Induction” value in series [1] is on record as 10.61. The IC50 on PDGFRα was 363 nM.

On to `CC(C)(C)OC(=O)N1CCN(c2cnn3cc(-c4cncn4CCO)ccc23)CC1` [Compound 230, tert-butyl 4-(6-(1-(2-hydroxyethyl)-1H-imidazol-5-yl)pyrazolo[1,5-a]pyridin-3-yl)piperazine-1-carboxylate], for which the “GPR17 Fold Induction” value in series [1] amounted to 0.97. Further, the IC50 on PDGFRα was greater than 10000 nM.

With `CC(C)(C)OC(=O)N1CCN(c2cnn3cc(-c4cn(CCCN5CCOCC5)cn4)ccc23)CC1` [Compound 231, tert-butyl 4-(6-(1-(3-morpholinopropyl)-1H-imidazol-4-yl)pyrazolo[1,5-a]pyridin-3-yl)piperazine-1-carboxylate], the “GPR17 Fold Induction” value in series [1] is reported as 9.34. Moreover, the IC50 on PDGFRα was determined as 395 nM.

In the case of `CC(C)(C)OC(=O)N1CCN(c2cnn3cc(-c4cncn4CCCN4CCOCC4)ccc23)CC1` [Compound 232, tert-butyl 4-(6-(1-(3-morpholinopropyl)-1H-imidazol-5-yl)pyrazolo[1,5-a]pyridin-3-yl)piperazine-1-carboxylate], the “GPR17 Fold Induction” value in series [1] came out at 1.03. Further, the IC50 on PDGFRα is greater than 10000 nM.

As for `CC(C)(C)OC(=O)N1CCN(c2cnn3cc(-c4cnn5c4CCCC5)ccc23)CC1` [Compound 236, tert-butyl 4-(4,5,6,7-tetrahydro-[3,6′-bipyrazolo[1,5-a]pyridin]-3′-yl)piperazine-1-carboxylate], the “GPR17 Fold Induction” value in series [1] was 6.03. Also, the IC50 on PDGFRα came to 696 nM.

Turning to `Cn1nnc(-c2ccc3c(N4CCN(C(=O)OC(C)(C)C)CC4)cnn3c2)n1` [Compound 237, tert-butyl 4-(6-(2-methyl-2H-tetrazol-5-yl)pyrazolo[1,5-a]pyridin-3-yl)piperazine-1-carboxylate], the “GPR17 Fold Induction” value in series [1] is reported as 0.95. At PDGFRα, the IC50 was greater than 10000 nM.

On to `Cn1cc(-c2ccc3c(N4CCN(c5ncnn5Cc5ccccc5)CC4)cnn3c2)cn1` [Compound 239, 3-(4-(1-benzyl-1H-1,2,4-triazol-5-yl)piperazin-1-yl)-6-(1-methyl-1H-pyrazol-4-yl)pyrazolo[1,5-a]pyridine], for which, in series [1], the “GPR17 Fold Induction” value is listed as 1.88. Further, at PDGFRα, the IC50 was greater than 10000 nM.

As to `CC1CN(C(=O)OC(C)(C)C)CCN1c1cnn2cc(-c3cnn(C)c3)ccc12` (stereo not drawn) [Compound 240, tert-butyl 3-methyl-4-(6-(1-methyl-1H-pyrazol-4-yl)pyrazolo[1,5-a]pyridin-3-yl)piperazine-1-carboxylate], the “GPR17 Fold Induction” value in series [1] is on record as 4.67. In addition, the IC50 on PDGFRα turned out to be 9410 nM.

On to `Cn1cc(-c2ccc3c(C4=CCC(CCc5ccccc5)CC4)cnn3c2)cn1` (stereo not drawn) [Compound 242, 6-(1-methyl-1H-pyrazol-4-yl)-3-(4-phenethylcyclohex-1-en-1-yl)pyrazolo[1,5-a]pyridine], for which the “GPR17 Fold Induction” value in series [1] was found to be 2.24. In addition, the IC50 on PDGFRα was greater than 10000 nM.

With `Cn1cc(-c2ccc3c(C4=CCC(COc5ccccc5)CC4)cnn3c2)cn1` (stereo not drawn) [Compound 243, 1-methyl-4-{3-[4-(phenoxymethyl)cyclohex-1-en-1-yl]pyrazolo[1,5-a]pyridin-6-yl}pyrazole], the “GPR17 Fold Induction” value in series [1] was determined as 0.62. The IC50 on PDGFRα was greater than 10000 nM.

Consider `Cn1cc(-c2ccc3c(NCC(=O)Nc4ncc(Cc5ccccc5)cn4)cnn3c2)cn1` [Compound 244, N-(5-benzylpyrimidin-2-yl)-2-((6-(1-methyl-1H-pyrazol-4-yl)pyrazolo[1,5-a]pyridin-3-yl)amino) acetamide], for which, in series [1], the “GPR17 Fold Induction” value is reported as 4.76. Also, the IC50 at PDGFRα was found to be 2140 nM.

Regarding `Cn1cc(-c2ccc3c(N4CCN(c5nc(Cc6ccccc6)ns5)CC4)cnn3c2)cn1` [Compound 245, 3-benzyl-5-(4-(6-(1-methyl-1H-pyrazol-4-yl)pyrazolo[1,5-a]pyridin-3-yl)piperazin-1-yl)-1,2,4-thiadiazole], the “GPR17 Fold Induction” value in series [1] is given as 5.22. For the same compound, at PDGFRα, the IC50 is greater than 10000 nM.

For the compound `Cn1cc(-c2ccc3c(N4CCN(c5ncc(C(N)c6ccc(F)cc6)cn5)CC4)cnn3c2)cn1` (stereo not drawn) [Compound 246, 1-(4-fluorophenyl)-1-(2-{4-[6-(1-methyl-1H-pyrazol-4-yl)pyrazolo[1,5-a]pyridin-3-yl]piperazin-1-yl}pyrimidin-5-yl)methanamine], the “GPR17 Fold Induction” value in series [1] was 3.04. Also, the IC50 on PDGFRα came to 937 nM.

In the case of `CC(C)N(C)C(=O)N1CCN(c2cnn3cc(-c4cnn(C)c4)ccc23)CC1` [Compound 252, N-isopropyl-N-methyl-4-[6-(1-methyl-1H-pyrazol-4-yl)pyrazolo[1,5-a]pyridin-3-yl]piperazine-1-carboxamide], the “GPR17 Fold Induction” value in series [1] amounted to 1.79. In addition, the IC50 at PDGFRα turned out to be 674 nM.

Consider `COc1ccc(CN2CCN(c3cnn4cc(-c5cnn(C)c5)ccc34)CC2)cc1` [Compound 253, 3-[4-(4-methoxybenzyl)piperazin-1-yl]-6-(1-methyl-1H-pyrazol-4-yl)pyrazolo[1,5-a]pyridine], for which, in series [1], the “GPR17 Fold Induction” value was found to be 0.97. Besides, the IC50 at PDGFRα was greater than 10000 nM.

Turning to `COc1ccc2c(N3CCN(c4ncc(Cc5ccccc5)cn4)CC3)cnn2c1` [Compound 259, 3-[4-(5-benzylpyrimidin-2-yl)piperazin-1-yl]-6-methoxypyrazolo-[1,5-a]pyridine], the “GPR17 Fold Induction” value in series [1] was 2.69. For the same compound, the IC50 at PDGFRα was greater than 10000 nM.

Consider `Cn1cc(-c2ccc3c(N4CCN(c5ncc(C(F)(F)c6ccc(F)cc6)cn5)CC4)cnn3c2)cn1` [Compound 262, 3-(4-(5-(difluoro (4-fluorophenyl)methyl)pyrimidin-2-yl)piperazin-1-yl)-6-(1-methyl-1H-pyrazol-4-yl)pyrazolo[1,5-a]pyridine], for which, in series [1], the “GPR17 Fold Induction” value is on record as 2.61. Further, the IC50 at PDGFRα was greater than 10000 nM.

As to `C[C@H](c1ccc(Cl)cc1)N(C)C(=O)N1CCN(c2cnn3cc(-c4cnn(C)c4)ccc23)CC1` [Compound 276, (R)—N-(1-(4-chlorophenyl)ethyl)-N-methyl-4-(6-(1-methyl-1H-pyrazol-4-yl)pyrazolo[1,5-a]pyridin-3-yl)piperazine-1-carboxamide], the “GPR17 Fold Induction” value in series [1] stood at 2.11. Besides, the IC50 at PDGFRα amounted to 2700 nM.

For the compound `CN(Cc1ccc(Cl)cc1)C(=O)N1CCN(c2cnn3cc(-c4cnn(C)c4)ccc23)CC1` [Compound 278, N-(4-chlorobenzyl)-N-methyl-4-[6-(1-methyl-1H-pyrazol-4-yl)pyrazolo[1,5-a]pyridin-3-yl]piperazine-1-carboxamide], the “GPR17 Fold Induction” value in series [1] is on record as 6.13. The IC50 on PDGFRα is 1400 nM.

Regarding `Cn1cc(-c2ccc3c(N4CCN(C(=O)OCc5ccccc5C(N)=O)CC4)cnn3c2)cn1` [Compound 280, 2-carbamoylbenzyl 4-(6-(1-methyl-1H-pyrazol-4-yl)pyrazolo[1,5-a]pyridin-3-yl)piperazine-1-carboxylate], in series [1], the “GPR17 Fold Induction” value amounted to 3.05. Moreover, the IC50 on PDGFRα stood at 6180 nM.

In the case of `Cn1cc(-c2ccc3c(N4CCN(C(=O)OCc5ccccc5C#N)CC4)cnn3c2)cn1` [Compound 281, 2-cyanobenzyl 4-(6-(1-methyl-1H-pyrazol-4-yl)pyrazolo[1,5-a]pyridin-3-yl)piperazine-1-carboxylate], the “GPR17 Fold Induction” value in series [1] is on record as 11.42. On PDGFRα, the IC50 came to 303 nM.

Take `Cn1cc(-c2ccc3c(N4CCN(c5ncc(C(=O)C(F)(F)F)cn5)CC4)cnn3c2)cn1` [Compound 284, 2,2,2-trifluoro-1-(2-(4-(6-(1-methyl-1H-pyrazol-4-yl)pyrazolo[1,5-a]pyridin-3-yl)piperazin-1-yl)pyrimidin-5-yl)ethan-1-one]: the “GPR17 Fold Induction” value in series [1] came out at 6.21. Also, the IC50 on PDGFRα was greater than 10000 nM.

Turning to `Cn1cc(-c2ccc3c(N4CCN(c5ncc(C(O)C(F)(F)F)cn5)CC4)cnn3c2)cn1` (stereo not drawn) [Compound 285, 2,2,2-trifluoro-1-(2-{4-[6-(1-methyl-1H-pyrazol-4-yl)pyrazolo[1,5-a]pyridin-3-yl]piperazin-1-yl}pyrimidin-5-yl)ethanol], the “GPR17 Fold Induction” value in series [1] stood at 6.20. In addition, at PDGFRα, the IC50 was 7620 nM.

Take `CC(O)C(O)c1cnc(N2CCN(c3cnn4cc(-c5cnn(C)c5)ccc34)CC2)nc1` (stereo not drawn) [Compound 286, 1-(2-(4-(6-(1-methyl-1H-pyrazol-4-yl)pyrazolo[1,5-a]pyridin-3-yl)piperazin-1-yl)pyrimidin-5-yl)propane-1,2-diol]: the “GPR17 Fold Induction” value in series [1] was found to be 4.95. The IC50 on PDGFRα came out at 1790 nM.
